# In US7001900B2, “Azabicyclic compounds for the treatment of disease” (Pfizer Inc., priority 2002, dated 2006):
# Target: T1, chimeric α7-5HT3 ion channel (UniProt P23979+P36544, M226I/T225I)
# T1 construct: expressed in transfected cells
# Test: Cell-based FLIPR assay of agonist activity on the chimeric α7-5HT3 receptor (Calcium Green fluorescence, intracellular calcium)
# Conditions: SH-EP1 cells expressing chimeric α7-5HT3 ion channel
# From the text: The cDNA encoding the N-terminal 201 amino acids from the human α7 nAChR that contain the ligand binding domain of the ion channel was fused to the cDNA encoding the pore forming region of the mouse 5HT3 receptor as described by Eisele J L, et al., Chimacric nicotinic-serotonergic receptor combines distinct ligand binding and channel specificities, Nature (1993), December 2;366(6454):479–83, and modified by Groppi, et al., WO 00/73431. The chimeric α7–5HT3 ion channel was inserted into pGS 175 and pGS 179 which contain the resistance genes for G-418 and hygromycin B, respectively. […]
# To assay the activity of the α7–5HT3 ion channel, cells expressing the channel were plated into each well of either a 96 or 384 well dish (Corning #3614) and grown to confluence prior to assay. […] The activity of compounds on the chimeric α7–5HT3 ion channel was analyzed on FLIPR. […] Fluorescent emission was measured above 525 nanometers with an appropriate F-stop to maintain a maximal signal to noise ratio. Agonist activity of each compound was measured by directly adding the compound to cells expressing the chimeric α7-5HT3 ion channel and measuring the resulting increase in intracellular calcium that is caused by the agonist-induced activation of the chimeric ion channel. […]
# T1 sequence (P36544+P23979 fused P36544:T225I/P36544:M226I): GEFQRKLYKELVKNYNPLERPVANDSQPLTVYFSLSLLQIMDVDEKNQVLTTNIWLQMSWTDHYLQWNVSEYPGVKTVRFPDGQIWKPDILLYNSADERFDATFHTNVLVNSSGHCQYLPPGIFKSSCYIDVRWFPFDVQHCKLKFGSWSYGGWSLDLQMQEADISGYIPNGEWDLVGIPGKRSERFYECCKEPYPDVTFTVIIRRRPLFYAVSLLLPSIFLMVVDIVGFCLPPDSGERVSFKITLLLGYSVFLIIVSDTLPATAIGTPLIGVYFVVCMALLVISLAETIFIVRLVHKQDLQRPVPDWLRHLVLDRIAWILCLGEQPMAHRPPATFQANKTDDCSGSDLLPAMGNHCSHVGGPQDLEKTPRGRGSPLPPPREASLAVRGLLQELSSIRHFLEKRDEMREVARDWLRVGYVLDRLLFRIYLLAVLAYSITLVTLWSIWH
structure (smiles),measurement,value
"Cl.O=C(N[C@H]1CN2CCC1CC2)c1ccc2cccc(O)c2n1 [Example 8, N-[(3R)-1-azabicyclo[2.2.2]oct-3-yl]-8-hydroxyquinoline-2-carboxamide hydrochloride]",EC50 (effective concentration needed to cause a 50% maximal increase in intracellular calcium),inactive
